According to patent publication US11726088B2, “Sirtuin 4 (SIRT4) lipoamidase activity and uses thereof” (THE TRUSTEES OF PRINCETON UNIVERSITY, priority 2014, dated 2023):
Primed or numbered codes have the meaning given here. Ends that are not written are not given here. Peptide text beside a SMILES is read from it. * marks the point of attachment. ξ: configuration not given here. Biotin = O=C1N[C@H]2[C@H](CS[C@H]2CCCCC(=O)*)N1; lipoyl″ = O=C(CCCC[C@@H]1CCSS1)*; Lipoyl(6ξ) = O=C(CCCCC1CCSS1)*

T1: SIRT4 (Homo sapiens, UniProt Q9Y6E7)
T1 construct: 6xHis (followed by human rhinovirus 3C protease site) (N); made in house; host or cells: E. coli BL21(DE3), co-expressed with GroEL and GroES
T1 sequence (Q9Y6E7 33-314): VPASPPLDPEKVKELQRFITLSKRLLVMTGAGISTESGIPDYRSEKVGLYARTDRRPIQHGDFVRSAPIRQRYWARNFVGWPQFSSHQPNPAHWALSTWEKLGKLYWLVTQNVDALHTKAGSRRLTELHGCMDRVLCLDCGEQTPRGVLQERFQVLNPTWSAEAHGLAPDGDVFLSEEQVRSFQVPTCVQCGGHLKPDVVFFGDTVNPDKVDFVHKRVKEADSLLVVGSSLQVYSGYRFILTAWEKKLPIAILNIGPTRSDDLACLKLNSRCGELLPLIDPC


How the values were obtained:
Assay type in all cases: biochemical
SIRT4 [1] = target: T1, SIRT4; test: HPLC-based SIRT4 kinetics assays (steady-state, acyl-modified peptide substrates); conditions: SIRT4 enzyme concentration = 5 μM; NAD 1 mM; 25° C.
Text: Recombinant SIRT4 protein expression and purification. N-terminally truncated human Sirt4 (33-314 of SEQ ID NO: 2) was cloned into a derivative of pET-15b containing a human rhinovirus 3C Protease cleavage site in place of its thrombin cleavage site. 6×His-Sirt4 was co-expressed with GroEL and GroES in BL21(DE3) E. coli in order to promote proper protein folding. Protein was purified using immobilized-metal affinity chromatography (IMAC) followed by anion-exchange chromatography to remove associated folding chaperones. For some experiments the His-tag was removed using 3C protease. Protein was concentrated, snap frozen in N2(l), and stored at −80° C. HPLC-based SIRT4 kinetics assays. SIRT4 kinetic assays were essentially performed as described by others^3,4. Briefly, enzyme reactions (20 μL) were performed in 50 mM Tris, pH 8.0, containing 5 μM recombinant SIRT4 and varying concentrations (0 to 2500 μM) of H3K9- or DLAT-modified peptides with either acetyl-lysine, biotinyl-lysine, or lipoyl-lysine. Reactions were initiated by addition of NAD (1 mM) and incubated at 25° C. for between 30-120 min, depending on substrate-specific reaction rates and to maintain steady-state conditions. Reactions were quenched with formic acid to a final concentration of 0.5% (v/v) and analyzed by HPLC-UV detection (Ultimate 3000 RSLC/VWD-3400). Substrate and product were separated by reverse-phase chromatography (Acclaim PepMap RSLC, 75 μm×15 cm) at 0.75 μL/min. Product concentration was measured by peak integration of A280 signals. Initial reaction velocities were determined in at least duplicate and fit to a modified Briggs-Haldane equation, which substituted kcat×[SIRT4] for Vmax and allowed determination of kinetic parameters, kcat, Km and kcat/Km and their associated error (±SEM), using GraphPad Prism 5. SIRT4's catalytic efficiency towards the various acyl-modified peptide substrates was assessed (Table 1 below).

SIRT4 [2] = target: T1, SIRT4; test: LC-MS-based in vitro peptide deacylation assay; conditions: 5 μM SIRT4, 10 uM peptide, with NAD, 1 hr at 37° C.
Text: Recombinant SIRT4 protein expression and purification. N-terminally truncated human Sirt4 (33-314 of SEQ ID NO: 2) was cloned into a derivative of pET-15b containing a human rhinovirus 3C Protease cleavage site in place of its thrombin cleavage site. 6×His-Sirt4 was co-expressed with GroEL and GroES in BL21(DE3) E. coli in order to promote proper protein folding. Protein was purified using immobilized-metal affinity chromatography (IMAC) followed by anion-exchange chromatography to remove associated folding chaperones. For some experiments the His-tag was removed using 3C protease. Protein was concentrated, snap frozen in N2(l), and stored at −80° C.
LC-MS-based in vitro peptide deacylation assay. The ability of SIRT4 to hydrolyze various acyl-lysine modifications was measured using LC-MS. In 20 μL reaction volume, 10 uM peptide (lipoyl-, biotinyl-, or acetyl-lysine) was incubated with increasing concentrations of SIRT4 (0.5 μM, 2.5 μM, and 5 μM), with or without NAD, in 50 mM TrisHCl, pH 8, 137 mM NaCl, 2.7 mM KCl and 1 mM MgCl2, for 1 hr at 37° C. Reactions were quenched with 25 μL of 2% TFA and an internal control peptide was spiked in to monitor for run-to-run variability. Reaction products were desalted, eluted, concentrated and analyzed by nano-LC-MS/MS, as above, but altered LC gradients. A 30 min linear gradient from 4-40% B was used for all peptides, except for lipoyl-lysine biological peptides, which used a 12-70% B linear gradient. Data were imported into Skyline software (version 2.1) to obtain precursor extracted ion chromatographams (XICs) using the following settings: Isotope Count, 3; precursor mass analyzer, Orbitrap; Resolving power, 60,000 @ 400 Th. The retention times of substrate (modified) and product (unmodified) peptides were confirmed by fragmentation spectra and peak integration boundaries were manually inspected. Three biological replicates were analyzed for each reaction.
The lipoamide cofactor bound to E2 (transferase enzymes) is required for dehydrogenase complex activity (FIG. 1b). Given that other mitochondrial SIRTs can hydrolyze various […] group lysine modifications^3,4 and that all PDHC components were present in our SIRT4 isolation, we speculated that E2 dehydrogenase components may be biological substrates of SIRT4, and that SIRT4 may directly hydrolyze the lipoamid modification. To test this we screened the in vitro activity of recombinant SIRT4 against differentially-modified synthetic peptides (FIG. 10). Firstly, SIRT4 activity towards acyl-modified H3K9 peptides (SEQ ID NOs: 3-5) was measured using a liquid-chromatography (LC)-MS-based deacylation assay. SIRT4 was incubated with H3K9 peptides modified with acetyl-lysine (SEQ ID NO: 5), biotinyl-lysine (SEQ ID NO: 4) or lipoyl-lysine (SEQ ID NO: 3), in the presence or absence of NAD. Following reaction, the remaining unreacted substrates and newly generated unmodified peptides were identified and quantified by LC-MS (FIG. 2A, 2G-2I and FIG. 5). […] To compare the relative preference of SIRT4 for these different substrates, we used extracted ion chromatograms to quantify unreacted substrate (S) and product (P) amounts from all reactions, and represented the percentage of unmodified peptide generated (FIG. 2H). […] The relative amount of unmodified product generated using 5 μM SIRT4 was 11% (lipoyl—SEQ ID NO: 3), 3% (biotinyl—SEQ ID NO: 4) and 0.3% (acetyl—[…]) (FIG. 2B and FIG. 2H, H3K9 substrates). […]

purified porcine PDH = test: Immuno-capture activity assay of purified porcine PDH in vitro; conditions: PDP1 0.1 μg/μL; recombinant SIRT4 50 μM + NAD 5 mM after PDP1
Procedure: Purified porcine heart PDH pre-incubated at a final concentration of 1 μg/μl (10 and 25 μL reactions for PDH assay and Western blot, respectively) in 1×PDH assay buffer for 10 min at 30° C. containing 2 mM CaCl2), with or without 0.1 μg/μL of pyruvate dehydrogenase phosphatase catalytic subunit 1 (PDP1, Abcam, cat. #ab110357). To reactions that were treated with PDP1, either NAD alone (5 mM), recombinant SIRT4 (50 μM)+NAD (5 mM), or recombinant SIRT4 H161Y (50 μM)+NAD (5 mM) were added and incubated for an additional 1 hr at RT. 10 μL reactions were diluted with 400 μL of 1×PDH assay buffer and 2×200 μL were used to determine PDH activity. For Western blot analysis (25 μl reactions), 5 μg of purified porcine PDH was mixed in 1× reducing LDS sample buffer, heated at 70° C. for 10 min, resolved by SDS-PAGE, and then proteins were transferred to nitrocellulose membranes for detection of total E1α, pS232, pS293, and pS300 (see western immunoblotting above).
To characterize the impact of the observed in vitro activity, we next assessed whether SIRT4 could regulate the activity of PDH. We first used an immuno-capture assay to test the activity of purified porcine PDH in vitro (FIG. 14A). […] Therefore, we speculated that the reduction in activity may result from SIRT4 directly hydrolyzing the DLAT lipoamide.

Molecule	Km (SIRT4 [1]) [µM]	relative amount of unmodified product generated (SIRT4 [2]) [%]	activity of purified porcine PDH (purified porcine PDH)
MCD K471 Acetyl: synthetic MCD K471 peptide SYLGSKNIKASEW with acetyl-lysine (SEQ ID NO: 29) (also: acetyl-lysine at K471, K6 or K9 not given here)	> 2500		
CC[C@H](C)[C@H](NC(=O)[C@@H](NC(=O)[C@H](C)NC(=O)[C@H](CCCCNC(C)=O)NC(=O)[C@H](CC(=O)O)NC(=O)[C@@H](NC(=O)[C@H](CCC(=O)O)NC(=O)[C@@H](NC(=O)[C@@H](N)CCC(=O)O)[C@@H](C)CC)[C@@H](C)O)[C@@H](C)O)C(=O)NCC(=O)N[C@@H](Cc1c[nH]c2ccccc12)C(=O)O [DLAT K259 Acetyl] (H-EIETDK(Ac)ATIGW-OH)	> 2500		
C[C@H](NC(=O)[C@@H](NC(=O)[C@H](CCC(N)=O)NC(=O)[C@@H](N)CCCCN)[C@@H](C)O)C(=O)N[C@@H](CCCNC(=N)N)C(=O)N[C@@H](CCCCNC(=O)CCCCC1CCSS1)C(=O)N[C@@H](CO)C(=O)N[C@H](C(=O)NCC(=O)NCC(=O)N[C@@H](Cc1c[nH]c2ccccc12)C(=O)N[C@@H](Cc1c[nH]c2ccccc12)C(=O)O)[C@@H](C)O (some centres unmarked) [H3 K9 Lipoyl] (H-KQTARK(Lipoyl(6ξ))STGGWW-OH)	814 ± 163	11	
CC(=O)NCCCC[C@H](NC(=O)[C@H](CCCNC(=N)N)NC(=O)[C@H](C)NC(=O)[C@@H](NC(=O)[C@H](CCC(N)=O)NC(=O)[C@@H](N)CCCCN)[C@@H](C)O)C(=O)N[C@@H](CO)C(=O)N[C@H](C(=O)NCC(=O)NCC(=O)N[C@@H](Cc1c[nH]c2ccccc12)C(=O)N[C@@H](Cc1c[nH]c2ccccc12)C(=O)O)[C@@H](C)O [H3 K9 Acetyl] (H-KQTARK(Ac)STGGWW-OH)	> 2500	0.3	
PDHX: lipoyl-modified PDHX peptide substrate (SEQ ID NO: 12); unmodified product is SEQ ID NO: 13 (EIETDK(lipoyl″)AVVTWW)		42	
C[C@H](NC(=O)[C@@H](NC(=O)[C@H](CCC(N)=O)NC(=O)[C@@H](N)CCCCN)[C@@H](C)O)C(=O)N[C@@H](CCCNC(=N)N)C(=O)N[C@@H](CCCCNC(=O)CCCC[C@@H]1SC[C@@H]2NC(=O)N[C@@H]21)C(=O)N[C@@H](CO)C(=O)N[C@H](C(=O)NCC(=O)NCC(=O)N[C@@H](Cc1c[nH]c2ccccc12)C(=O)N[C@@H](Cc1c[nH]c2ccccc12)C(=O)O)[C@@H](C)O [H3 K9 Biotinyl] (H-KQTARK(Biotin)STGGWW-OH)	719 ± 79	3	
PDP1: pyruvate dehydrogenase phosphatase catalytic subunit 1 (protein, UniProt Q9P0J1 72-537, looked up) [Pyruvate dehydrogenase …: ASTPQKFYLTPPQVNSILKANEYSFKVPEFDGKNVSSILGFDSNQLPANAPIEDRRSAATCLQTRGMLLGVFDGHAGCACSQAVSERLFYYIAVSLLPHETLLEIENAVESGRALLPILQWHKHPNDYFSKEASKLYFNSLRTYWQELIDLNTGESTDIDVKEALINAFKRLDNDISLEAQVGDPNSFLNYLVLRVAFSGATACVAHVDGVDLHVANTGDSRAMLGVQEEDGSWSAVTLSNDHNAQNERELERLKLEHPKSEAKSVVKQDRLLGLLMPFRAFGDVKFKWSIDLQKRVIESGPDQLNDNEYTKFIPPNYHTPPYLTAEPEVTYHRLRPQDKFLVLATDGLWETMHRQDVVRIVGEYLTGMHHQQPIAVGGYKVTLGQMHGLLTERRTKMSSVFEDQNAATHLIRHAVGNNEFGTVDHERLSKMLSLPEELARMYRDDITIIVVQFNSHVVGAYQNQE			elevated PDH activity
SIRT4: N-terminally truncated recombinant human Sirt4 (33-314 of SEQ ID NO: 2) (protein, listed as Homo sapiens) VPASPPLDPEKVKELQRFITLSKRLLVMTGAGISTESGIPDYRSEKVGLYARTDRRPIQHGDFVRSAPIRQRYWARNFVGWPQFSSHQPNPAHWALSTWEKLGKLYWLVTQNVDALHTKAGSRRLTELHGCMDRVLCLDCGEQTPRGVLQERFQVLNPTWSAEAHGLAPDGDVFLSEEQVRSFQVPTCVQCGGHLKPDVVFFGDTVNPDKVDFVHKRVKEADSLLVVGSSLQVYSGYRFILTAWEKKLPIAILNIGPTRSDDLACLKLNSRCGELLPLIDPC			able to attenuate PDH activity
